{"source": "ChEMBL document CHEMBL5579843", "about": "“Multimechanism biological profiling of tetrahydro-β-carboline analogues as selective HDAC6 inhibitors for the treatment of Alzheimer's disease” (Eur J Med Chem, 2024)", "key": {"Histone deacetylase 2": {"target": "Histone deacetylase 2 (Homo sapiens, UniProt Q92769)", "sequence (Q92769 whole entry)": "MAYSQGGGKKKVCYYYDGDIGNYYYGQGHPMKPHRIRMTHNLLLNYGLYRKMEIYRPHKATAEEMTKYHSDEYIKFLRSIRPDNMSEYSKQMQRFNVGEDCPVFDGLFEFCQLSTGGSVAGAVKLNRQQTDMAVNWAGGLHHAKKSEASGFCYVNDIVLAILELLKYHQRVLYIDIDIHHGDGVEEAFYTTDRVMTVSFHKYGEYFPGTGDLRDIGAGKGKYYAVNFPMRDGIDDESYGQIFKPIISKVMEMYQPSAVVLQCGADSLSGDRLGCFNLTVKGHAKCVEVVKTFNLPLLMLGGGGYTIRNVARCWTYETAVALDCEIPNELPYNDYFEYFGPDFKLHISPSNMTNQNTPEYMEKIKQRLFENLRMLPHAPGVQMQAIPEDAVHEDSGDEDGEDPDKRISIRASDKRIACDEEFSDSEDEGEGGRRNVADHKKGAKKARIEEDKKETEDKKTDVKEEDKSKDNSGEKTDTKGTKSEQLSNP", "assay": "Inhibition of HDAC2 (unknown origin)"}, "[1]": {"target": "T1, Polyamine deacetylase HDAC10 (Homo sapiens, UniProt Q969S8)", "T1 sequence (Q969S8 whole entry)": "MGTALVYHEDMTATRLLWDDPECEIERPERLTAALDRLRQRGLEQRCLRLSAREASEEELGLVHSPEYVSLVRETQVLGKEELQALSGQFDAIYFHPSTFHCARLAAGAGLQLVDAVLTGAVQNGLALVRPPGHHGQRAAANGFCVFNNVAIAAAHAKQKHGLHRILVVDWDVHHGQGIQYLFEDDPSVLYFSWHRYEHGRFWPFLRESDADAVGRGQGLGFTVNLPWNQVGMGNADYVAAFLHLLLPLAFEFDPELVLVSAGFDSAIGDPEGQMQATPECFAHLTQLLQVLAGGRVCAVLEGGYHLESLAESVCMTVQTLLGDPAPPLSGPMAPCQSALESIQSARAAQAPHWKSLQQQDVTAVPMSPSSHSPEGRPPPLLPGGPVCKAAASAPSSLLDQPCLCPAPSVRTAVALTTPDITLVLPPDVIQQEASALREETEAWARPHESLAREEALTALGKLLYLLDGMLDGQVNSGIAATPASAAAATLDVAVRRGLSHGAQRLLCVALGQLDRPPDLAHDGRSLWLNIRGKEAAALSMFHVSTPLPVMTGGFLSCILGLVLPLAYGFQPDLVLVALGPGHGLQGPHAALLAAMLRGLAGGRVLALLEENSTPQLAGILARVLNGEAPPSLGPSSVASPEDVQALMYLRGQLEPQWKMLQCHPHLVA", "assay": "Inhibition of HDAC10 (unknown origin) by TR-FRET assay"}, "PC-12 [2]": {"test_system": "PC-12", "assay": "Inhibition of HDAC6 in rat PC-12 cells assessed as increase in acetylated alpha-tubulin level incubated for 6 hrs by Western blot analysis", "assay_type": "cell-based", "settings": "dose 0.1-10 µM"}, "PC-12 [3]": {"test_system": "PC-12", "assay": "Induction of neurite outgrowth in rat PC-12 cells assessed as increase in neuronal growth at 10 uM measured after 48 hrs by light microscopic analysis relative to control", "assay_type": "functional"}, "PC-12 [4]": {"test_system": "PC-12", "assay": "Induction of neurite outgrowth in rat PC-12 cells measured after 48 hrs by light microscopic analysis", "assay_type": "functional, cell-based", "settings": "dose 1-10 µM"}, "PC-12 [5]": {"test_system": "PC-12", "assay": "Induction of neurite outgrowth in rat PC-12 cells assessed as increase in average neuronal length at 1 to 10 uM measured after 48 hrs by light microscopic analysis", "assay_type": "functional, cell-based", "settings": "dose 1-10 µM"}, "PC-12 [6]": {"test_system": "PC-12", "assay": "Induction of neurite outgrowth in rat PC-12 cells assessed as increase in number of neurites per cells at 1 to 10 uM measured after 48 hrs by light microscopic analysis", "assay_type": "functional, cell-based", "settings": "dose 1-10 µM"}, "PC-12 [7]": {"test_system": "PC-12", "assay": "Upregulation of GAP-43 protein expression in rat PC-12 cells measured after 24 hrs by Western blot analysis", "assay_type": "functional, cell-based", "settings": "dose 1-10 µM"}, "PC-12 [8]": {"test_system": "PC-12", "assay": "Upregulation of beta-3 tubulin protein expression in rat PC-12 cells measured after 24 hrs by Western blot analysis", "assay_type": "functional, cell-based", "settings": "dose 1-10 µM"}, "PC-12 [9]": {"test_system": "PC-12", "assay": "Neuroprotective activity against H2O2-induced oxidative damage in rat PC-12 cells assessed as cell survival rate at 10 uM pretreated for 4 hrs followed by 800 uM H2O2 stimulation and measured after 24 hrs by MTT assay relative to control", "assay_type": "functional", "settings": "time 28 hrs, read-out: Survival"}, "SH-SY5Y [10]": {"test_system": "SH-SY5Y", "assay": "Neuroprotective activity against H2O2-induced oxidative damage in human SH-SY5Y cells assessed as increase in cell survival pretreated for 4 hrs followed by 200 uM H2O2 stimulation and measured after 24 hrs by MTT assay", "assay_type": "functional, cell-based", "settings": "dose 1-10 µM, time 28.0 hrs"}, "PC-12 [11]": {"test_system": "PC-12", "assay": "Neuroprotective activity against 6-OHDA-induced oxidative damage in rat PC-12 cells assessed as increase in cell survival at 1 to 10 uM pretreated for 4 hrs followed by 500 uM 6-OHDA stimulation and measured after 24 hrs by MTT assay", "assay_type": "functional, cell-based", "settings": "dose 1-10 µM, time 28.0 hrs"}, "SH-SY5Y [12]": {"test_system": "SH-SY5Y", "assay": "Neuroprotective activity against 6-OHDA-induced oxidative damage in human SH-SY5Y cells assessed as increase in cell survival at 1 to 10 uM pretreated for 4 hrs followed by 100 uM 6-OHDA stimulation and measured after 24 hrs by MTT assay", "assay_type": "functional, cell-based", "settings": "dose 1-10 µM, time 28.0 hrs"}, "PC-12 [13]": {"test_system": "PC-12", "assay": "Neuroprotective activity against H2O2-induced oxidative damage in rat PC-12 cells assessed as inhibition of apoptosis by measuring increase in Bcl-2 protein expression pretreated for 4 hrs followed by H2O2 stimulation and measured after 24 hrs by Western blot analysis", "assay_type": "functional, cell-based", "settings": "dose 1-10 µM, time 28.0 hrs"}, "PC-12 [14]": {"test_system": "PC-12", "assay": "(§1) Neuroprotective activity against H2O2-induced oxidative damage in rat PC-12 cells assessed as inhibition of apoptosis by measuring live cells at 10 uM pretreated for 4 hrs followed by H2O2 stimulation and measured after 24 hrs by Annexin V-FITC/PI staining based flow cytometry analysis (reference value: 81.7%)", "assay_type": "functional", "parameters": "scale not given: the % may be the effect or the level left", "settings": "time 28 hrs"}, "PC-12 [15]": {"test_system": "PC-12", "assay": "as §1, with “dead” for “live”, “5.10%)” for “81.7%)”", "assay_type": "functional", "parameters": "scale not given: the % may be the effect or the level left", "settings": "time 28 hrs"}, "PC-12 [16]": {"test_system": "PC-12", "assay": "Neuroprotective activity against H2O2-induced oxidative damage in rat PC-12 cells assessed as reduction in intracellular LDH level by measuring residual activity at 1 uM pretreated for 4 hrs followed by H2O2 stimulation and measured after 24 hrs relative to control", "assay_type": "functional", "settings": "time 28 hrs"}, "PC-12 [17]": {"test_system": "PC-12", "assay": "Neuroprotective activity against H2O2-induced oxidative damage in rat PC-12 cells assessed as reduction in intracellular LDH level by measuring residual activity at 10 uM pretreated for 4 hrs followed by H2O2 stimulation and measured after 24 hrs relative to control", "assay_type": "functional", "settings": "time 28 hrs"}, "PC-12 [18]": {"test_system": "PC-12", "assay": "Neuroprotective activity against H2O2-induced oxidative damage in rat PC-12 cells assessed as SOD activity at 10 uM pretreated for 4 hrs followed by H2O2 stimulation and measured after 24 hrs by WST-8 assay", "assay_type": "functional", "settings": "time 28 hrs"}, "PC-12 [19]": {"test_system": "PC-12", "assay": "Neuroprotective activity against H2O2-induced oxidative damage in rat PC-12 cells assessed as reduction in ROS level at 10 uM pretreated for 4 hrs followed by H2O2 stimulation and measured after 24 hrs by DCFH-DA staining based fluorescence microscopic analysis", "assay_type": "functional, cell-based", "settings": "time 28.0 hrs"}, "PC-12 [20]": {"test_system": "PC-12", "assay": "Neuroprotective activity against H2O2-induced oxidative damage in rat PC-12 cells assessed as increase in Nrf2 protein expression at 10 uM pretreated for 4 hrs followed by H2O2 stimulation and measured after 24 hrs by Western blot analysis", "assay_type": "functional, cell-based", "settings": "time 28.0 hrs"}, "PC-12 [21]": {"test_system": "PC-12", "assay": "Neuroprotective activity against H2O2-induced oxidative damage in rat PC-12 cells assessed as increase in catalase protein expression at 10 uM pretreated for 4 hrs followed by H2O2 stimulation and measured after 24 hrs by Western blot analysis", "assay_type": "functional, cell-based", "settings": "time 28.0 hrs"}, "PC-12 [22]": {"test_system": "PC-12", "assay": "Neuroprotective activity against H2O2-induced oxidative damage in rat PC-12 cells assessed as increase in Prx II protein expression measured after 24 hrs by Western blot analysis", "assay_type": "functional, cell-based", "settings": "dose 1-10 µM"}, "Danio rerio [23]": {"species": "Danio rerio", "assay": "Effect on anxiety-like behavior in scopolamine induced zebrafish alzheimer disease model assessed as exploratory behavior in upper part of aquarium by measuring increase in total swimming distance at 1 mg/L pretreated with scopolamine for 30 mins followed by compound addition for 3 mins by novel tank diving test", "assay_type": "functional, organism-based"}, "Danio rerio [24]": {"species": "Danio rerio", "assay": "Cognitive improvement ability in scopolamine induced zebrafish alzheimer disease model assessed as improvement in spatial memory by measuring increase in activity at enriched chamber region at 1 mg/L pretreated with scopolamine for 30 mins followed by compound addition for 3 mins by T-maze test", "assay_type": "functional, organism-based"}, "Danio rerio [25]": {"species": "Danio rerio", "assay": "Cognitive improvement ability in scopolamine induced zebrafish alzheimer disease model assessed as improvement in motor activity by measuring increase in total distance of swimming at 1 mg/L pretreated with scopolamine for 30 mins followed by compound addition for 3 mins by T-maze test", "assay_type": "functional, organism-based"}}, "note": "pIC50: −log10 of the molar value. Active and inactive are the calls of the source. No cut-off for these calls is given here.", "data": [{"smiles": "O=C(NO)c1ccc(CN2CCc3c(n(CC4CC4)c4ccc(F)cc34)C2)cc1", "values": [{"measurement": "pIC50", "setting": "Histone deacetylase 2", "result": 4.71}, {"measurement": "pIC50", "setting": "[1]", "result": 6.28}, {"measurement": "inhibition", "setting": "PC-12 [2]", "result": "Dose-Dependent Effect"}, {"measurement": "Activity", "setting": "PC-12 [3]", "result": 15.3, "unit": "%"}, {"measurement": "Activity", "setting": "PC-12 [4]", "result": "Dose-Dependent Effect"}, {"measurement": "Activity", "setting": "PC-12 [5]", "result": "Active"}, {"measurement": "Activity", "setting": "PC-12 [6]", "result": "Active"}, {"measurement": "Activity", "setting": "PC-12 [7]", "result": "Dose-Dependent Effect"}, {"measurement": "Activity", "setting": "PC-12 [8]", "result": "Dose-Dependent Effect"}, {"measurement": "viability at 10 µM", "setting": "PC-12 [9]", "result": 89.7, "unit": "%"}, {"measurement": "Activity", "setting": "SH-SY5Y [10]", "result": "Dose-Dependent Effect"}, {"measurement": "Activity", "setting": "PC-12 [11]", "result": "Active"}, {"measurement": "Activity", "setting": "SH-SY5Y [12]", "result": "Active"}, {"measurement": "Activity", "setting": "PC-12 [13]", "result": "Dose-Dependent Effect"}, {"measurement": "Activity", "setting": "PC-12 [14]", "result": 91.5, "unit": "%"}, {"measurement": "Activity", "setting": "PC-12 [15]", "result": 1.12, "unit": "%"}, {"measurement": "Activity", "setting": "PC-12 [16]", "result": 74.3, "unit": "%"}, {"measurement": "Activity", "setting": "PC-12 [17]", "result": 35.9, "unit": "%"}, {"measurement": "Activity", "setting": "PC-12 [18]", "result": 17.16, "unit": "U/mg"}, {"measurement": "Activity", "setting": "PC-12 [19]", "result": "Active"}, {"measurement": "Activity", "setting": "PC-12 [20]", "result": "Active"}, {"measurement": "Activity", "setting": "PC-12 [21]", "result": "Active"}, {"measurement": "Activity", "setting": "PC-12 [22]", "result": "Dose-Dependent Effect"}, {"measurement": "Activity", "setting": "Danio rerio [23]", "result": "Active"}, {"measurement": "Activity", "setting": "Danio rerio [24]", "result": "Active"}, {"measurement": "Activity", "setting": "Danio rerio [25]", "result": "Active"}]}]}
